Reference: US20090304606A1, “Method for removing debris from tooth and bone surface using irrigation solution” (priority 2006, published 2009)

Test: Effect of surfactants on stability of citric acid solutions, accelerated aging on a hot plate
Format: physicochemical
Method: In the following example, the stability of solutions containing an acid component and different surfactants (surfactants) was evaluated. Solutions of 4.4% citric acid and 0.5% surfactant were prepared. The solutions were placed in clear glass bottles, and the bottles were placed on a hot plate to approximate accelerated aging conditions. The temperature of the liquids in the bottle was about 60° C., although some variations occurred depending upon the position of the bottle.

Sequence: POLOXAMER 237
- Observations (stability of solution): Slightly cloudy after 64 days.

Sequence: POLOXAMER 407
- Observations (stability of solution): Yellow precipitate formed at bottom
